Data on 30 compounds can be found in US10696692B2, “Amido-benzyl sulfone and sulfoxide derivates” (Forma TM, LLC, priority 2012, dated 2020).

Test [1] deals with NAMPT (Homo sapiens (Human), UniProt P43490). Description: Assay 1: Biochemical Inhibition Assay (NAMPT enzymatic reaction, NMN quantified by mass spectrometry).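 Also: recombinant His-tagged human NAMPT preincubated with compound 15 min, then reacted 30 min at rt with 1 µM NAM, 100 µM PRPP, 2.5 mM ATP, NMN product read by RapidFire MS, normalized to L-Cystathionine internal standard.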 The settings on record: read-out: Biochemical (IC50).
NAMPT, sequence (P43490 whole entry): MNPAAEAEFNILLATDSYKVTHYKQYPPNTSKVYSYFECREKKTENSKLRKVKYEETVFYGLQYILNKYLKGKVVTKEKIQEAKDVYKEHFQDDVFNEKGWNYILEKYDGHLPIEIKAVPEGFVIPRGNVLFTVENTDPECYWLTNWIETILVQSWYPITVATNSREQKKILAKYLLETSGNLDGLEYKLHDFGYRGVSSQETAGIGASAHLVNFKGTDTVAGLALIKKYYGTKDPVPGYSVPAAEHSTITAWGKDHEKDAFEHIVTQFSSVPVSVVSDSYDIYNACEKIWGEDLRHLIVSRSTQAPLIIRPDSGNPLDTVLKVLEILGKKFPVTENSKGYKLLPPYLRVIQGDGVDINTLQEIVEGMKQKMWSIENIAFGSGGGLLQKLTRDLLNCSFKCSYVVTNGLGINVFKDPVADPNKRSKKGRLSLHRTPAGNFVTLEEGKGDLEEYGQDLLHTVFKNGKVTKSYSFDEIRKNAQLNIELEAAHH
In test [2] the test system is A2780 cells. The experiment in a line: Assay 2: In-Vitro Cell Proliferation Assay (A2780 cells, SRB readout, 72 hours).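 Also: viable cells counted via sulforhodamine B staining, absorbance at 570 nm, after 72 h exposure at 37 °C, DMSO 0.1% as control, media-only background subtracted.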 Type of test: cell-based. As to conditions: A2780 cells, 72 hours, SRB, read-out: Cell Proliferation (IC50).

Like-named read-outs stand apart in the source and are kept apart here.

On to `N[C@H]1C[C@H]2CC[C@@H](C1)N2S(=O)(=O)c1ccc(CNC(=O)c2cc3ccncc3s2)cc1` [Example 44, Thieno[2,3-c]pyridine-2-carboxylic acid 4-((1R,3R,5S)-3-amino-8-aza-bicyclo[3.2.1]octane-8-sulfonyl)-benzylamide], for which the IC50 in test [1] came out at 5.8 nM; in test [2] (Homo sapiens, A2780, 72 h), 23.2 nM.

`O=C(NCc1ccc(S(=O)(=O)[C@@H]2CCOC2)cc1)c1cnc2nccn2c1` [Example 80, Imidazo[1,2-a]pyrimidine-6-carboxylic acid 4-[(R)-(tetrahydro-furan-3-yl)sulfonyl]-benzylamide]: the IC50 in test [1] came out at 8.9 nM; in test [2], 457 nM.

With `O=C(NCc1ccc(S(=O)(=O)N2CCC(O)CC2)cc1)c1ccc2nccn2c1` [Example 28, Imidazo[1,2-a]pyridine-6-carboxylic acid 4-(4-hydroxy-piperidine-1-sulfonyl)-benzylamide], the IC50 was found to be 23.5 nM in test [1] and 27.6 nM in test [2] (Homo sapiens, A2780, 72 h).

`O=C(NCc1ccc(S(=O)(=O)N2CC[C@H]3C[C@H]32)cc1)c1ccc2nccn2c1` (racemic) [Example 166, cis-Imidazo[1,2-a]pyridine-6-carboxylic acid 4-(2-aza-bicyclo[3.1.0]hexane-2-sulfonyl)-benzylamide]: the IC50 was 17.2 nM in test [1] and 9.6 nM in test [2] (Homo sapiens, A2780, 72 h).

In the case of `CS(=O)(=O)N1CCC(S(=O)(=O)c2ccc(CNC(=O)c3cnc4[nH]ncc4c3)cc2)C1` (stereo not drawn) [Example 354, N-[[4-(1-methylsulfonylpyrrolidin-3-yl)sulfonylphenyl]methyl]-1H-pyrazolo[3,4-b]pyridine-5-carboxamide], the IC50 in test [1] stood at 413 nM; in test [2] (Homo sapiens, A2780, 72 h), 726 nM.

For the compound `O=C(NCc1ccc(S(=O)(=O)C2CCCOC2)cc1)c1cc2ccncc2o1` (stereo not drawn) [Example 275, N-[(4-tetrahydropyran-3-ylsulfonylphenyl)methyl]furo [2,3-c]pyridine-2-carboxamide], the IC50 in test [1] stood at 30.4 nM; in test [2] (Homo sapiens, A2780, 72 h) it was 50.3 nM.

Regarding `O=C(NCc1ccc(S(=O)(=O)N2CCC3(CCCO3)C2)cc1)c1cc2ccncc2o1` (stereo not drawn) [Example 303, N-[[4-(1-oxa-7-azaspiro[4.4]nonan-7-ylsulfonyl)phenyl]methyl]furo [2.3-c]pyridine-2-carboxamide], the IC50 in test [1] stood at 22.7 nM; in test [2] (Homo sapiens, A2780, 72 h), 15.4 nM.

Take `O=C(NCc1ccc(S(=O)(=O)N2CC3(CCCNC3)C2)cc1)c1ccc2nccn2c1` [Example 253, N-[[4-(2,8-diazaspiro[3,5]nonan-2-ylsulfonyl)phenyl]methyl] imidazo[1,2-a]pyridine-6-carboxamide]: the IC50 in test [1] stood at 27.4 nM; in test [2] (Homo sapiens, A2780, 72 h), 31.3 nM.

As for `N#CC1CCN(S(=O)(=O)c2ccc(CNC(=O)c3ccc4nccn4c3)cc2)CC1` [Example 95, Imidazo[1,2-a]pyridine-6-carboxylic acid 4-(4-cyano-piperidine-1-sulfonyl)-benzylamide], the IC50 turned out to be 41 nM in test [1] and 33.5 nM in test [2] (Homo sapiens, A2780, 72 h).

As to `CCCN1CCC([S@+]([O-])c2ccc(CNC(=O)c3cc4ccncc4o3)cc2)CC1` [Example 383, N-[[4-[(S)-(1-propyl-4-piperidyl)sulfinyl]phenyl]methyl]furo[2,3-c]pyridine-2-carboxamide], the IC50 in test [1] is 35.7 nM; in test [2], 6.46 nM.

Consider `O=C(NCc1ccc(S(=O)(=O)C2CCCOC2)cc1)c1cc2cnccc2[nH]1` (racemic) [Example 154, 1H-Pyrrolo[3,2-c]pyridine-2-carboxylic acid 4-(tetrahydro-pyran-3-sulfonyl)-benzylamide], for which the IC50 in test [1] was 33.1 nM; in test [2] (Homo sapiens, A2780, 72 h), 18.5 nM.

Take `CC(C)CN1CCC([S+]([O-])c2ccc(CNC(=O)c3cnc4[nH]ncc4c3)cc2)CC1` (stereo not drawn) [Example 190, N-[[4-[(1-isobutyl-4-piperidyl)sulfinyl]phenyl]methyl]-1H-pyrazolo[3,4-b]pyridine-5-carboxamide]: the IC50 in test [1] came to 130 nM; in test [2] (Homo sapiens, A2780, 72 h) it was 23 nM.

For `O=C(NCc1ccc(S(=O)(=O)[C@H]2CCOC2)cc1)c1ccc2nccn2c1` [Example 223, N-[[4-[(3S)-tetrahydrofuran-3-yl]sulfonylphenyl]methyl] imidazo[1,2-a]pyridine-6-carboxamide], the IC50 in test [1] was 64.2 nM; in test [2] (Homo sapiens, A2780, 72 h), 105 nM.

As for `O=C(NCc1ccc(S(=O)(=O)N2CC3CCC(F)(F)C3C2)cc1)c1cc2ccncc2o1` (stereo not drawn) [Example 296, N-[[4-[(4,4-difluoro-1,3,3a,5,6,6a-hexahydrocyclopenta[c]pyrrol-2-yl)sulfonyl]phenyl]methyl]furo [2,3-c]pyridine-2-carboxamide], the IC50 in test [1] came to 9.84 nM; in test [2] (Homo sapiens, A2780, 72 h) it was 10.1 nM.

As for `O=C(NCc1ccc(S(=O)(=O)N2CC3(CCCO3)C2)cc1)c1ccc2nccn2c1` [Example 274, N-[(4-(5-oxa-2-azaspiro[3.4]octan-2-ylsulfonyl)phenyl]methyl] imidazo[1,2-a]pyridine-6-carboxamide], the IC50 in test [1] was 19 nM; in test [2] (Homo sapiens, A2780, 72 h), 5.93 nM.

In the case of `CC(C)(C)OC(=O)N1CC[C@@H]2CN(S(=O)(=O)c3ccc(CNC(=O)c4ccc5nccn5c4)cc3)C[C@@H]21` (racemic) [Example 136, cis-5-(4-{[(Imidazo[1,2-a]pyridine-6-carbonyl)-amino]-methyl}-benzenesulfonyl)-hexahydropyrrolo[3,4-b]pyrrole-1-carboxylic acid tert-butyl ester], the IC50 came out at 43.7 nM in test [1] and 39.1 nM in test [2] (Homo sapiens, A2780, 72 h).

For `N#CCCN1CCN(S(=O)(=O)c2ccc(CNC(=O)c3ccc4nccn4c3)cc2)CC1` [Example 104, Imidazo[1,2-a]pyridine-6-carboxylic acid 4-[4-(2-cyano-ethyl)-piperazine-1-sulfonyl]-benzylamide], the IC50 was found to be 26.9 nM in test [1] and 8.8 nM in test [2] (Homo sapiens, A2780, 72 h).

For `O=C(NCc1ccc([S+]([O-])C2CCN(CC(F)(F)F)CC2)cc1)c1cnc2[nH]ncc2c1` (stereo not drawn) [Example 367, N-[[4-[[1-(2,2,2-trifluoroethyl)-4-piperidyl)sulfinyl]phenyl]methyl]-1H-pyrazolo[3,4-b]pyridine-5-carboxamide], the IC50 in test [1] was 88.1 nM; in test [2] (Homo sapiens, A2780, 72 h) it was 15 nM.

Consider `CC(C)(C)OC(=O)N1CCCC2(CCN(S(=O)(=O)c3ccc(CNC(=O)c4ccc5nccn5c4)cc3)CC2)C1` [Example 122, 9-(4-{[(Imidazo[1,2-a]pyridine-6-carbonyl)-amino]-methyl}-benzenesulfonyl)-2,9-diaza-spiro[5.5]undecane-2-carboxylic acid tert-butyl ester], for which the IC50 was found to be 25.5 nM in test [1] and 2.6 nM in test [2] (Homo sapiens, A2780, 72 h).

Consider `O=C(NCc1ccc(S(=O)(=O)N2CC3CCC(C2)O3)cc1)c1cnc2[nH]ncc2c1` [Example 27, 1H-Pyrazolo[3,4-b]pyridine-5-carboxylic acid 4-(8-oxa-3-aza-bicyclo[3.2.1]octane-3-sulfonyl)-benzylamide], for which the IC50 came to 142 nM in test [1] and 132 nM in test [2] (Homo sapiens, A2780, 72 h).

Take `O=C(NCc1ccc(S(=O)(=O)N2CC(O)C2)cc1)c1ccc2nccn2c1` [Example 245, N-[[4-(3-hydroxyazetidin-1-yl)sulfonylphenyl]methyl] imidazo[1,2-a]pyridine-6-carboxamide]: the IC50 in test [1] was 52.3 nM; in test [2] (Homo sapiens, A2780, 72 h), 274 nM.

For the compound `COC1CCN(S(=O)(=O)c2ccc(CNC(=O)c3cc4ccncc4o3)cc2)CC1` [Example 7, Furo[2,3-c]pyridine-2-carboxylic acid 4-(4-methoxy-piperidine-1-sulfonyl)-benzylamide], the IC50 worked out at 10.9 nM in test [1] and 13.3 nM in test [2] (Homo sapiens, A2780, 72 h).

In the case of `O=C(NCc1ccc(S(=O)(=O)N2CCCCC2)cc1)c1cnc2nccn2c1` [Example 6, Imidazo[1,2-a]pyrimidine-6-carboxylic acid 4-(piperidine-1-sulfonyl)-benzylamide], the IC50 in test [1] was 3.5 nM; in test [2] (Homo sapiens, A2780, 72 h) it was 129 nM.

In the case of `CC(C)N1CCC([S+]([O-])c2ccc(CNC(=O)N3Cc4ccncc4C3)cc2)CC1` (stereo not drawn) [Example 363, N-[[4-[(1-isopropyl-4-piperidyl)sulfinyl]phenyl]methyl]-1,3-dihydropyrrolo[3,4-c]pyridine-2-carboxamide], the IC50 in test [1] stood at 53.7 nM; in test [2] (Homo sapiens, A2780, 72 h), 45.6 nM.

Turning to “tert-butyl 7-[4-[(imidazo[1,2- a]pyridine-6- carbonylamino)methyl]phenyl] sulfonyl-1,7- diazaspiro[4.4]nonane-1- carboxylate [Example 236]”, the IC50 turned out to be 13.3 nM in test [1] and 1.79 nM in test [2].

For `O=C(NCc1ccc(S(=O)(=O)N2CCC(N3CCCC3)CC2)cc1)c1ccc2nccn2c1` [Example 97, Imidazo[1,2-a]pyridine-6-carboxylic acid 4-(4-pyrrolidin-1-yl-piperidine-1-sulfonyl)-benzylamide], the IC50 in test [1] came to 14.4 nM; in test [2] (Homo sapiens, A2780, 72 h) it was 5.4 nM.

With `O=C(NCc1ccc(S(=O)(=O)C2CCN(C3CCOCC3)CC2)cc1)c1ccc2nccn2c1` [Example 214, N-[[4-[(1-tetrahydropyran-4-yl-4-piperidyl)sulfonyl]phenyl]methyl]imidazo[1,2-a] pyridine-6-carboxamide], the IC50 in test [1] is 13.6 nM; in test [2] (Homo sapiens, A2780, 72 h) it was 4.73 nM.

For `CC(C)(C)OC(=O)NC1CC2(CCN(S(=O)(=O)c3ccc(CNC(=O)c4ccc5nccn5c4)cc3)CC2)C1` [Example 127], the IC50 in test [1] worked out at 14.5 nM; in test [2] (Homo sapiens, A2780, 72 h) it was 2.77 nM.

Consider `N#CCCNC1CCN(S(=O)(=O)c2ccc(CNC(=O)c3cnc4[nH]ncc4c3)cc2)CC1` [Example 57, 1H-Pyrazolo[3,4-b]pyridine-5-carboxylic acid 4-[4-(2-cyano-ethylamino)-piperidine-1-sulfonyl]-benzylamide], for which the IC50 in test [1] was found to be 64.8 nM; in test [2] (Homo sapiens, A2780, 72 h), 55.5 nM.

Regarding `O=C(NCc1ccc(S(=O)(=O)N2CCOCC2)cc1)c1ccc2nccn2c1` [Example 10, Imidazo[1,2-a]pyridine-6-carboxylic acid 4-(morpholine-4-sulfonyl)-benzylamide], the IC50 in test [1] worked out at 25.1 nM; in test [2] (Homo sapiens, A2780, 72 h), 14.8 nM.
